Measured values from ChEMBL document CHEMBL1142892, “Synthesis and antitumor activity of indolylpyrimidines: marine natural product meridianin D analogues” (Bioorg Med Chem, 2007).
≈ marks a conversion by molar mass, not a printed value. Calls of active or inactive are those of the source. No cut-off for these calls is given here.

Columns and labels:
Format in all cases: functional, cell-based
HepG2 = assay: Cytotoxicity against human HEPG2 cells after 48 hrs by SRB assay
U-251 = assay: Cytotoxicity against human U251 cells after 48 hrs by SRB assay
MCF7 = assay: Cytotoxicity against human MCF7 after 48 hrs cells by SRB assay
HeLa = assay: Cytotoxicity against human HeLa cells after 48 hrs by SRB assay

Row | Structure (SMILES) | Activity (HepG2) | Activity (U-251) | IC50 (MCF7) [µg/mL] | IC50 (HeLa) [µg/mL]
1 | Nc1ncc(C(=O)O)c(-c2c[nH]c3ccccc23)n1 | inactive | inactive | 0.75 (≈ 2.95 µM) | –
2 | Nc1nccc(-c2c[nH]c3ccccc23)n1 | inactive | inactive | – | –
3 | N/N=C(\N)c1cnc(N)nc1-c1c[nH]c2ccccc12 | inactive | inactive | 0.25 (≈ 0.935 µM) | –
4 | N#Cc1cnc(N)nc1-c1c[nH]c2ccccc12 | inactive | inactive | 0.85 (≈ 3.61 µM) | 2.65 (≈ 11.3 µM)
